# Patent US20240122946A9, “METHODS AND COMPOSITIONS FOR TREATING 25-HYDROXYVITAMIN D DEFICIENCY” (Board of Supervisors of Louisiana State University and …, priority 2019, published 2024)
# What was measured:
# [1] = test system: mice maintained on a VD-deficient HFD; assay: Supplementation of mice on VD-deficient HFD: blood biomarkers; format: in vivo, mouse; conditions: VD 67 IU/kg BW, vs OO (vehicle) control
# Experimental: Effect of supplementation with VD along with LC on plasma levels of GSH, 25(OH)VD, and IR, and on GSH and VD regulatory genes in liver and on GSH and glucose metabolism genes in muscle: Beginning at 5 weeks of age, male C57BL/6J mice were fed and maintained on a VD-deficient HFD and water ad libitum for 16 weeks. Mice were gavaged daily for the last 8 weeks with saline, olive oil (OO), LC (5 mg/kg BW), VD (67 IU/kg BW), or LC+VD to investigate whether co-supplementation with GSH precursor has a better effect on blood levels of 25(OH)VD compared with levels achieved using VD alone. VD was dissolved in OO and one group of mice was also gavaged with OO (vehicle) alone.
# Animal studies. Male C57BL/6J mice (5 weeks old, 20-24 g) were purchased from The Jackson Laboratory and acclimatized in the institutional animal house for 1 week. Mice were divided into various groups by computer-generated randomization and then housed and labeled in individual cages. They were fasted overnight and then weighed. Blood glucose was assessed by tail prick using an Accu-Chek glucometer (Boehringer Mannheim Corp., Indianapolis, Ind.). BW and blood glucose were monitored weekly. Control animals were fed a normal diet (lower in fat), while animals in the HFD group were fed HFD for 16 weeks. For studies with VD-deficient animals, the mice were maintained on a VD-deficient HFD for 16 weeks.
# In addition, two groups of mice maintained on the VD-deficient HFD were also simultaneously supplemented by oral gavage with either water or the same dose of the vehicle used for dissolving cholecalciferol (OO) (FIG. 5). The animals were maintained under standard housing conditions at 22° C. 2° C. with 12/12-h light/dark cycles. Normal diet, HFD, and VD-deficient HFD were purchased from The Jackson Laboratory. The amount of food intake was monitored at 12 and 16 weeks into the treatment period to assess consumption. At the end of 16 weeks, the animals were fasted overnight and then euthanized for analysis by exposure to isoflurane (Webster Veterinary Supply, Inc., Devens, Mass.). Blood was collected via heart puncture with a 19^1/2-gauge needle into heparinized Vacutainer tubes. Plasma was isolated after centrifuging the blood in a 4° C. centrifuge at 3000 rpm for 10 min. The livers were perfused with cold saline to free them of residual blood. Liver and gastrocnemius muscle were collected immediately, weighed, quickly diced, and frozen in liquid nitrogen at −80° C.
# Dose justification for LC and vitamin D: While lc can be taken as a supplement, it is also formed in the body from methionine. An adult ingests about 500 mg LC from dietary sources, assuming that an average protein intake is 90 g/day and that LC is about 0.6% of total protein. Similarly, taking into account daily dietary intake and diet composition, mice consume 3-5 mg LC/kg BW. The LC/methionine content of protein varies with the source of the protein. The LC dose used in our studies, 5 mg/kg BW, is theoretically a supplementation onefold to twofold that of the LC ordinarily consumed by the mice, which could be considered both modest and safe. […]
# 25(OH)VD, 1,25(OH)2VD, VDBP, GSH, TNF-α, PTH, insulin, glucose, protein carbonyl, and MDA assays: Plasma levels of 25(OH) vitamin D were determined using an ELISA kit (Calbiotech, Spring Valley, Calif.) and 1,25(OH)2 vitamin D using another ELISA kit (My BioSource, San Diego, Calif.). Plasma VDBP quantification was carried out using a kit purchased from ALPCO Diagnostics (Salem, N.H.). […]
# [2] = test system: FL83B mouse hepatocytes; assay: LC and cholecalciferol treatment of hepatocytes (GCLC-KD, VDR-KD); format: cell-based
# Experimental: (§1) Cell culture and treatment: FL83B mouse hepatocytes (ATCC®, Manassas, Va.) were cultured and maintained in F-12K complete medium. Mouse C2C12 myoblasts were cultured at 37° C. in an atmosphere of 5% CO2 in growth medium (GM) consisting of Dulbecco's modified Eagle's medium (DMEM) supplemented with heat-inactivated 10% fetal bovine serum and antibiotics (penicillin and streptomycin). […] The control siRNA, a scrambled nonspecific RNA duplex that shares no sequence homology with any of the genes, was used as a negative control.
# (§2) Cells were transiently transfected with 0-100 nM siRNA complex using Lipofectamine™2000 transfection reagent (Invitrogen, Carlsbad, Calif.). […] TNF-α (0-250 μg/mL) was exposed for 6 h to differentiated myotubes.
# (§3) Analysis of mRNA expression using quantitative polymerase chain reaction: Total RNA was extracted from cells or tissue using the TRIzol reagent (Life Technologies) following the manufacturer's instructions. The quality and quantity of the extracted RNA were determined on a NanoDrop spectrophotometer (Thermo Scientific). First-strand complementary DNA (cDNA) synthesis was performed using a commercially available High Capacity RNA-To-cDNA kit (Life Technologies) in a final reaction volume of 20 μL. Amplification of cDNA was performed on a 7900HT Real Time polymerase chain reaction (PCR) system (Applied Biosystems). PCR conditions were 2 min at 50° C., 10 min at 95° C., 40 cycles of 95° C. for 15 s, and then 60° C. for 60 s. Glyceraldehyde-3-phosphate dehydrogenase (GAPDH) was used as a housekeeping gene to normalize threshold cycle (CT) values.
# (§4) Levels of GSH in plasma, tissues, and cultured cells were determined using HPLC. This assay determines total GSH status. Cell viability was determined using the Alamar Blue method (Alamar Biosciences, Sacramento, Calif.). Oxidative stress was assessed by the quantification of protein carbonyls and MDA using Protein Carbonyl Colorimetric and TBARS Assay Kits, respectively (Cayman Chemical, Ann Arbor, Mich.). Measurements of HbA1c, Complete Blood Count, glucose, and calcium were done at the clinical chemistry laboratories of LSUHSC-Shreveport. Due to limited amount of blood collected from each mouse, we borrowed diluents from the clinical laboratory and diluted the blood before taking it to the clinical laboratory, which reduced the amount of blood required for clinical tests. All chemicals were purchased from Sigma Chemical Co. (St. Louis, Mo.) unless otherwise mentioned.
# [3] = test system: C2C12 myotubes; assay: LC, TNF-α and 1,25(OH)2VD treatment of myotubes (GCLC-KD, PGC-1α KD); format: cell-based, mouse
# Experimental: as §1, §2, §3, §4
# [4] = oral gavage 8 weeks, LC 5 mg/kg BW
# [5] = LC alone, compared with control VDR-KD cells
compound,measurement,setting,value
"C=C1CC[C@H](O)C/C1=C/C=C1\CCC[C@]2(C)[C@@H]([C@H](C)CCCC(C)C)CC[C@@H]12 [VD, cholecalciferol]",IR (HOMA-IR) in blood,[1]; [4],did not show effect
same,blood HbA1c,[1]; [4],did not show effect
same,blood level of TNF-α,[1]; [4],did not show effect
same,blood level of VDBP,[1]; oral gavage 8 weeks,did not show effect
same,blood level of GSH,"[1]; oral gavage last 8 weeks of 16 weeks VD-deficient HFD, LC 5 mg/kg BW",did not show effect
same,effect on VD regulatory genes (mRNA),"[2]; cholecalciferol 10 nM, 22 h",stimulatory effect
"N[C@@H](CS)C(=O)O [LC, l-cysteine]",CYP27A1 gene upregulation,[2]; [5],not
same,VDBP gene expression,[2]; [5],upregulation
same,oxidation of both proteins and lipids,"[2]; LC, GSH-normal and GSH-deficient hepatocytes",reduced
same,GSH levels,"[3]; LC 300 μM, 6 h",increases
same,TNF-α levels,"[3]; LC 300 μM, 6 h, GCLC-normal and GCLC-KD myotubes",decrease
"C=C1/C(=C\C=C2/CCC[C@]3(C)[C@@H]([C@H](C)CCCC(C)(C)O)CC[C@@H]23)C[C@@H](O)C[C@@H]1O [1,25(OH)2VD, 1alpha,25-dihydroxyvitamin D3]",upregulation of NRF2 and GLUT-4,[3]; PGC-1α KD myotubes,absent
TNF-α,VDR/PGC-1α/GLUT-4 gene expression,"[3]; exogenous TNF-α, 6 h",downregulates
